In the supplement of paper PMC4862054:

Experiments:
Conditions in all cases: incubation time: 72 h
HCC1937 [1] = test: normalised response (% of control), CellTiter-Glo; higher = more viable cells (100 = DMSO, 0 = benzethonium chloride kill control)
Procedure, shortened: (§1)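 In 384-well plates holding compound at 5 concentrations in 10-fold steps over a 10,000-fold range specific to each compound, breast cancer cell lines were seeded as 20 µl suspension and incubated 72 h. CellTox Green fluorescence was measured at 485/520 nm, after which CellTiter-Glo luminescence was measured following 10 min at room temperature. Plate signals were normalised to 0.1 % DMSO (100) and a positive kill control (0), and each value is the normalised signal at a single concentration.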

MCF-10A = test: as above
Procedure, shortened: as §1

CAL-85-1 [2] = test: as above
Procedure, shortened: as §1

MDA-MB-468 [3] = test: as above
Procedure, shortened: as §1

CAL-51 [4] = test: as above
Procedure, shortened: as §1

MFM-223 [5] = test: as above
Procedure, shortened: as §1

HCC1599 [6] = test: as above
Procedure, shortened: as §1

HDQ-P1 [7] = test: as above
Procedure, shortened: as §1

BT-474 [8] = test: as above
Procedure, shortened: as §1

CAL-120 [9] = test: as above
Procedure, shortened: as §1

DU-4475 [10] = test: as above
Procedure, shortened: as §1

Hs578T [11] = test: as above
Procedure, shortened: as §1

MDA-MB-231 [12] = test: as above
Procedure, shortened: as §1

CAL-148 [13] = test: as above
Procedure, shortened: as §1

MDA-MB-436 [14] = test: as above
Procedure, shortened: as §1

HCC1143 [15] = test: as above
Procedure, shortened: as §1

BT-549 [16] = test: as above
Procedure, shortened: as §1

SK-BR-3 [17] = test: as above
Procedure, shortened: as §1

MDA-MB-453 [18] = test: as above
Procedure, shortened: as §1

HCC1937 [19] = test: normalised viability (% of control), CellTiter-Blue; higher = more viable cells (100 = DMSO, 0 = benzethonium chloride kill control)
Method: (§2)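 DSRT, CellTiter-Blue viability, 72 h incubation. Signal is normalised to DMSO and benzethonium chloride controls. Value is the normalised response at dose 1.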

CAL-85-1 [20] = test: as above
Method: as §2

MDA-MB-468 [21] = test: as above
Method: as §2

CAL-51 [22] = test: as above
Method: as §2

MFM-223 [23] = test: as above
Method: as §2

HCC1599 [24] = test: as above
Method: as §2

HDQ-P1 [25] = test: as above
Method: as §2

BT-474 [26] = test: as above
Method: as §2

CAL-120 [27] = test: as above
Method: as §2

DU-4475 [28] = test: as above
Method: as §2

Hs578T [29] = test: as above
Method: as §2

MDA-MB-231 [30] = test: as above
Method: as §2

CAL-148 [31] = test: as above
Method: as §2

MDA-MB-436 [32] = test: as above
Method: as §2

HCC1143 [33] = test: as above
Method: as §2

BT-549 [34] = test: as above
Method: as §2

SK-BR-3 [35] = test: as above
Method: as §2

MDA-MB-453 [36] = test: as above
Method: as §2

SMILES | normalised response (HCC1937 [1]) | normalised response (MCF-10A) | normalised response (CAL-85-1 [2]) | normalised response (MDA-MB-468 [3]) | normalised response (CAL-51 [4]) | normalised response (MFM-223 [5]) | normalised response (HCC1599 [6]) | normalised response (HDQ-P1 [7]) | normalised response (BT-474 [8]) | normalised response (CAL-120 [9]) | normalised response (DU-4475 [10]) | normalised response (Hs578T [11]) | normalised response (MDA-MB-231 [12]) | normalised response (CAL-148 [13]) | normalised response (MDA-MB-436 [14]) | normalised response (HCC1143 [15]) | normalised response (BT-549 [16]) | normalised response (SK-BR-3 [17]) | normalised response (MDA-MB-453 [18]) | normalised viability (HCC1937 [19]) | normalised viability (CAL-85-1 [20]) | normalised viability (MDA-MB-468 [21]) | normalised viability (CAL-51 [22]) | normalised viability (MFM-223 [23]) | normalised viability (HCC1599 [24]) | normalised viability (HDQ-P1 [25]) | normalised viability (BT-474 [26]) | normalised viability (CAL-120 [27]) | normalised viability (DU-4475 [28]) | normalised viability (Hs578T [29]) | normalised viability (MDA-MB-231 [30]) | normalised viability (CAL-148 [31]) | normalised viability (MDA-MB-436 [32]) | normalised viability (HCC1143 [33]) | normalised viability (BT-549 [34]) | normalised viability (SK-BR-3 [35]) | normalised viability (MDA-MB-453 [36])
CCNC(=O)c1noc(-c2cc(C(C)C)c(O)cc2O)c1-c1ccc(CN2CCOCC2)cc1 [NVP-AUY922] (0.1 nM) | 104% | 105% | 107% | 105% | 94.8% | 106% | 123% | 102% | 113% | 107% | 102% | 94.9% | 106% | 110% | 102% | 101% | 107% | 108% | 106% | 91.2% | 104% | 106% | 99.5% | 99.4% | 103% | 81.1% | 109% | 111% | 109% | 150% | 121% | 104% | 99.6% | 121% | 97.2% | 94.8% | 114%
CC(C)(C)NC(=O)[C@H]1CC[C@H]2[C@@H]3CC[C@H]4NC(=O)C=C[C@]4(C)[C@H]3CC[C@]12C [Finasteride] (1 nM) | 96.1% | 111% | 96% | 104% | 94.5% | 102% | 98.8% | 102% | 101% | 99.5% | 102% | 104% | 107% | 103% | 99.5% | 99% | 103% | 103% | 112% | 100% | 97% | 105% | 108% | 96.4% | 91.6% | 133% | 72.8% | 104% | 96.7% | 108% | 108% | 110% | 98.7% | 107% | 93.1% | 74.8% | 109%
CC1(C)CCC(c2ccc(Cl)cc2)=C(CN2CCN(c3ccc(C(=O)NS(=O)(=O)c4ccc(N[C@H](CCN5CCOCC5)CSc5ccccc5)c(S(=O)(=O)C(F)(F)F)c4)cc3)CC2)C1 [Navitoclax] (1 nM) | 98.2% | 93.5% | 91.8% | 95.1% | 74.1% | 93.8% | 98.6% | 106% | 95.7% | 94% | 101% | 97.6% | 99.2% | 90.3% | 95.6% | 88.7% | 102% | 92.4% | 94.4% | 88.2% | 79.1% | 90.2% | 109% | 69.9% | 90.9% | 67% | 88.9% | 73.8% | 88.6% | 99.2% | 84.6% | 99.2% | 59.8% | 81.6% | 103% | 78.4% | 83.4%
Cc1cc(Nc2nc(N[C@@H](C)c3ncc(F)cn3)ncc2Cl)[nH]n1 [AZD1480] (0.1 nM) | 102% | 102% | 102% | 94.8% | 117% | 94.9% | 78.9% | 104% | 98.7% | 100% | 97.2% | 96.8% | 98.3% | 95.5% | 104% | 96.7% | 104% | 98.7% | 101% | 122% | 91.2% | 111% | 118% | 92.3% | 97% | 124% | 114% | 93.4% | 115% | 116% | 93.5% | 112% | 114% | 98.1% | 109% | 105% | 102%
COc1cc(Nc2c(C#N)cnc3cc(OCCCN4CCN(C)CC4)c(OC)cc23)c(Cl)cc1Cl [Bosutinib] (1 nM) | 97.3% | 99.9% | 96.4% | 101% | 99.9% | 99.3% | 112% | 99.6% | 98.8% | 92.6% | 101% | 95.6% | 93.1% | 104% | 96.6% | 93% | 98.4% | 104% | 101% | 80.1% | 88.8% | 112% | 112% | 93.1% | 103% | 108% | 116% | 84.3% | 105% | 110% | 100% | 94.8% | 113% | 94% | 111% | 106% | 113%
CCNC(=O)CCC/C=C\C[C@@H]1[C@@H](/C=C/[C@@H](O)CCc2ccccc2)[C@H](O)C[C@@H]1O [Bimatoprost] (0.55 nM) | 99.9% | 91.1% | 96.6% | 99.3% | 90.8% | 94.3% | 88.5% | 92.7% | 95.8% | 95.8% | 102% | 93.3% | 101% | 98.3% | 98.5% | 92.6% | 103% | 85.8% | 108% | 103% | 94.7% | 109% | 120% | 94.9% | 115% | 119% | 110% | 91.6% | 111% | 113% | 120% | 96.5% | 111% | 99% | 103% | 117% | 102%
C=CCn1c(=O)c2cnc(Nc3ccc(N4CCN(C)CC4)cc3)nc2n1-c1cccc(C(C)(C)O)n1 [MK1775] (1 nM) | 97.9% | 80.6% | 101% | 95.2% | 114% | 85.6% | 105% | 87.7% | 94.4% | 92.9% | 96.6% | 95.8% | 90.5% | 87.4% | 85.8% | 91.4% | 101% | 78.3% | 90.2% | 106% | 78.4% | 105% | 89% | 94.8% | 103% | 84.2% | 90.5% | 83.5% | 86.6% | 106% | 95.2% | 99.8% | 97.9% | 104% | 107% | 92.9% | 104%
CC(=O)[C@]1(O)Cc2c(O)c3c(c(O)c2[C@@H](O[C@H]2C[C@H](N)[C@H](O)[C@H](C)O2)C1)C(=O)c1ccccc1C3=O [Idarubicin] (0.1 nM) | 100% | 103% | 102% | 112% | 101% | 108% | 102% | 101% | 106% | 105% | 103% | 107% | 109% | 110% | 112% | 109% | 105% | 105% | 101% | 92.9% | 95.7% | 130% | 102% | 97% | 96.6% | 115% | 99.8% | 101% | 92.2% | 112% | 78% | 102% | 112% | 103% | 109% | 95.3% | 101%
